Reference: patent US20250101042A1, “KRAS G12D MODULATING COMPOUNDS” (Gilead Sciences, Inc., priority 2023, published 2025)

Tests used:
[1] = system: GP2D (KRAS G12D) cells; assay: 2D Cell Viability Assay (CellTiter-Glo); type: cell-based; conditions: 4 days, CellTiter-Glo luminescence
Experimental: Example B. 2D Cell Viability Assay
Compounds were tested in a 384-well format for their ability to inhibit the viability of GP2D (KRAS G12D) cells in 2D assays. Compounds were serially diluted (1:3) in DMSO. The LabCyte ECHO Acoustic dispenser system was used to pre-spot assay plates with 200 nL of test molecule per well. 1000 cells/well (40 μL volume per well) in RPMI medium with 10% FBS, and Penicillin-Streptomycin-Glutamine were plated in pre-spotted 384-well plates (Greiner, Catalog #781076) on the BioTEK EL406 liquid dispenser with a 5 μL dispensing cassette (BioTek 7170011). The plates were incubated at 37° C., 5% CO2 for 4 days before addition of CellTiter-Glo (CTG) reagent and measurement of luminescence signal. EC50 values were defined as the compound concentration that causes a 50% decrease in luminescence signal and were calculated using a sigmoidal dose-response model to generate curve fits.

[2] = molecular target: GDP-loaded KRAS G12D (Homo sapiens, UniProt P01116, G12D); assay: KRAS G12D (GDP) Biochemical Assay (TR-FRET probe displacement); type: binding; conditions: 0.5 nM enzyme, 2 hours at room temperature
Experimental: Example A. KRAS G12D (GDP) Biochemical Assay
Compounds were tested for binding to GDP-loaded KRAS G12D in a 384-well assay format using a TR-FRET probe displacement assay in buffer consisting of 50 mM Hepes (pH 7.4), 150 mM NaCl, 5 mM MgCl2 and 0.005% Tween-20. […] Compounds were serially diluted (1:3) in DMSO. The LabCyte ECHO Acoustic dispenser system was used to pre-spot the assay plates (384-well Non-Binding Surface plates, Corning, Catalog #3824) with 50 nL of compound. The compounds were pre-incubated with 5 μL of 2× final enzyme concentration for 30 minutes before adding 5 μL of 2× final concentration of Eu-streptavidin and TR-FRET probe (10 μL final reaction volume). The plates were incubated at room temperature for 2 hours before measuring TR-FRET ratio on the Envision plate reader. IC50 values were defined as the compound concentration that causes a 50% decrease in TR-FRET ratio and were calculated using a sigmoidal dose-response model to generate curve fits.

Sequence of GDP-loaded KRAS G12D (P01116 1-188 isoform P01116-2 G12D): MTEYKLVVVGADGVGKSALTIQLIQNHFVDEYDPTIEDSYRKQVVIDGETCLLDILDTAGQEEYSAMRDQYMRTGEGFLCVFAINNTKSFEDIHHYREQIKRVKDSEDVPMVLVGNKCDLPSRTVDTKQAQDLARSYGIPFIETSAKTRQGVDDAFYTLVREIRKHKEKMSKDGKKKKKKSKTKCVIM

| Compound | EC50 ([1]; GP2d, 96 h) | IC50 [2] | EC50 [1] |
| --- | --- | --- | --- |
| C#Cc1c(F)ccc2cc(N)nc(-c3c(F)c4c5c(nc(OC[C@@]67CCCN6C[C@H](F)C7)nc5c3F)N3C[C@H]5CC[C@H](N5)[C@H]3CC4)c12 (atropisomer, axis not shown; (aR)) [Example 62, 1-((1S,4R,11S,14aR)-10,12-difluoro-8-(((2R,7aS)-2-fluorotetrahydro-1H-pyrrolizin-7a(5H)-yl)methoxy)-1,2,3,4,5,13,14,14a-octahydro-1,4-epiminoazepino[1′,2′:1,7]azepino[2,3,4-de]quinazolin-11-yl)-8-ethynyl-7-fluoroisoquinolin-3-amine] | 2.5 nM | 0.03 nM |  |
| C[C@H]1Cc2c(F)c(-c3ccc(F)c4sc(N)c(C#N)c34)c(F)c3nc(OC[C@@]45CCCN4C[C@H](F)C5)nc(c23)N2C[C@H]3CC[C@H](N3)[C@H]12 (atropisomer, axis not shown; (aS)) [Example 34, (S)-2-amino-4-((1S,4R,14S,14aS)-10,12-difluoro-8-(((2R,7aS)-2-fluorotetrahydro-1H-pyrrolizin-7a(5H)-yl)methoxy)-14-methyl-1,2,3,4,5,13,14,14a-octahydro-1,4-epiminoazepino[1′,2′:1,7]azepino[2,3,4-de]quinazolin-11-yl)-7-fluorobenzo[b]thiophene-3-carbonitrile] | 0.5 nM | 0.08 nM |  |
| C#Cc1c(F)ccc2cc(N)nc(-c3c(F)c4c5c(nc(OC[C@@]67CCCN6C[C@H](F)C7)nc5c3F)N3C[C@H]5CC[C@H](N5)[C@@H]3[C@@H](C)C4)c12 (atropisomer, axis not shown; (aS)) [Example 45, 1-((1S,4R,11S,14S,14aS)-10,12-difluoro-8-(((2R,7aS)-2-fluorotetrahydro-1H-pyrrolizin-7a(5H)-yl)methoxy)-14-methyl-1,2,3,4,5,13,14,14a-octahydro-1,4-epiminoazepino[1′,2′:1,7]azepino[2,3,4-de]quinazolin-11-yl)-8-ethynyl-7-fluoroisoquinolin-3-amine] | 2.2 nM | 0.04 nM |  |
| C#Cc1c(F)ccc2cc(N)nc(-c3c(Cl)c4c5c(nc(OC[C@@]67CCCN6C[C@H](F)C7)nc5c3F)N3C[C@H]5CC[C@H](N5)[C@@H]3[C@@H](C)C4)c12 (atropisomer, axis not shown; (aS)) [Example 48, 1-((1S,4R,11R,14S,14aS)-12-chloro-10-fluoro-8-(((2R,7aS)-2-fluorotetrahydro-1H-pyrrolizin-7a(5H)-yl)methoxy)-14-methyl-1,2,3,4,5,13,14,14a-octahydro-1,4-epiminoazepino[1′,2′:1,7]azepino[2,3,4-de]quinazolin-11-yl)-8-ethynyl-7-fluoroisoquinolin-3-amine] | 8.1 nM |  |  |
| C[C@H]1Cc2c(Cl)c(-c3ccc(F)c4sc(N)c(C#N)c34)c(F)c3nc(OC[C@@]45CCCN4C[C@H](F)C5)nc(c23)N2C[C@H]3CC[C@H](N3)[C@H]12 (atropisomer, axis not shown; (aS)) [Example 52, 2-amino-4-((1S,4R,11R,14S,14aS)-12-chloro-10-fluoro-8-(((2R,7aS)-2-fluorotetrahydro-1H-pyrrolizin-7a(5H)-yl)methoxy)-14-methyl-1,2,3,4,5,13,14,14a-octahydro-1,4-epiminoazepino[1′,2′:1,7]azepino[2,3,4-de]quinazolin-11-yl)-7-fluorobenzo[b]thiophene-3-carbonitrile] |  | 0.03 nM |  |
| C[C@H]1Cc2c(Cl)c(-c3ncc(F)c4sc(N)c(C#N)c34)c(F)c3nc(OC[C@@]45CCCN4C[C@H](F)C5)nc(c23)N2C[C@H]3CC[C@H](N3)[C@H]12 (atropisomer, axis not shown; (aS)) [Example 56, 2-amino-4-((1S,4R,11S,14S,14aS)-12-chloro-10-fluoro-8-(((2R,7aS)-2-fluorotetrahydro-1H-pyrrolizin-7a(5H)-yl)methoxy)-14-methyl-1,2,3,4,5,13,14,14a-octahydro-1,4-epiminoazepino[1′,2′:1,7]azepino[2,3,4-de]quinazolin-11-yl)-7-fluorothieno[3,2-c]pyridine-3-carbonitrile] | 2 nM | 0.11 nM |  |
| C[C@H]1Cc2c(Cl)c(-c3cccc4sc(N)c(C#N)c34)c(F)c3nc(OC[C@@]45CCCN4C[C@H](F)C5)nc(c23)N2C[C@H]3CC[C@H](N3)[C@H]12 (atropisomer, axis not shown; (aS)) [Example 57, 2-amino-4-((1S,4R,11R,14S,14aS)-12-chloro-10-fluoro-8-(((2R,7aS)-2-fluorotetrahydro-1H-pyrrolizin-7a(5H)-yl)methoxy)-14-methyl-1,2,3,4,5,13,14,14a-octahydro-1,4-epiminoazepino[1′,2′:1,7]azepino[2,3,4-de]quinazolin-11-yl)benzo[b]thiophene-3-carbonitrile] | 0.94 nM | 0.06 nM |  |
| Cc1cc(N)nc(-c2c(Cl)c3c4c(nc(OC[C@@]56CCCN5C[C@H](F)C6)nc4c2F)N2C[C@H]4CC[C@H](N4)[C@H]2CCC3)c1C(F)(F)F (single isomer, unassigned) [Example 2] | 65 nM | 8.8 nM |  |
| Cc1cc(N)nc(-c2c(Cl)c3c4c(nc(OC[C@@]56CCCN5C[C@H](F)C6)nc4c2F)N2C[C@H]4CC[C@H](N4)[C@H]2CCC3)c1C(F)(F)F (single isomer, unassigned) [Example 3] |  | 87 nM | > 100 nM |
| Cc1cc(N)nc(-c2c(Cl)c3c4c(nc(OC[C@@]56CCCN5C[C@H](F)C6)nc4c2F)N2C[C@H]4CC[C@H](N4)[C@H]2CC3)c1C(F)(F)F (single isomer, unassigned) [Example 5] |  | 1.1 nM | 14 nM |
| Cc1cc(N)nc(-c2c(Cl)c3c4c(nc(OC[C@@]56CCCN5C[C@H](F)C6)nc4c2F)N2C[C@H]4CC[C@H](N4)[C@H]2CC3)c1C(F)(F)F (single isomer, unassigned) [Example 6] |  | 0.05 nM | 1.2 nM |
| Cc1cc(N)nc(-c2c(F)c3c4c(nc(OC[C@@]56CCCN5C[C@H](F)C6)nc4c2F)N2C[C@H]4CC[C@H](N4)[C@H]2CC3)c1C(F)(F)F (single isomer, unassigned) [Example 21] |  | 2 nM | 12 nM |
| Cc1cc(N)nc(-c2c(F)c3c4c(nc(OC[C@@]56CCCN5C[C@H](F)C6)nc4c2F)N2C[C@H]4CC[C@H](N4)[C@H]2CC3)c1C(F)(F)F (single isomer, unassigned) [Example 22] |  | 0.08 nM | 1.6 nM |
| C[C@H]1Cc2c(F)c(-c3ncc(F)c4sc(N)c(C#N)c34)c(F)c3nc(OC[C@@]45CCCN4C[C@H](F)C5)nc(c23)N2C[C@H]3CC[C@H](N3)[C@H]12 (single isomer, unassigned) [Example 50] | 2.6 nM | 0.12 nM |  |
| C[C@H]1Cc2c(F)c(-c3ncc(F)c4sc(N)c(C#N)c34)c(F)c3nc(OC[C@@]45CCCN4C[C@H](F)C5)nc(c23)N2C[C@H]3CC[C@H](N3)[C@H]12 (single isomer, unassigned) [Example 51] |  | 0.8 nM | 3.4 nM |
| N#Cc1c(N)sc2c(F)ccc(-c3c(F)c4c5c(nc(OC[C@@]67CCCN6C[C@H](F)C7)nc5c3F)N3C[C@H]5CC[C@H](N5)[C@H]3CC4)c12 (single isomer, unassigned) [Example 59] |  | 4.2 nM | 24 nM |
| N#Cc1c(N)sc2c(F)ccc(-c3c(F)c4c5c(nc(OC[C@@]67CCCN6C[C@H](F)C7)nc5c3F)N3C[C@H]5CC[C@H](N5)[C@H]3CC4)c12 (single isomer, unassigned) [Example 60] |  | 0.03 nM | 1.8 nM |
| Cc1cc(N)nc(-c2nc3c4c(nc(OC[C@@]56CCCN5C[C@H](F)C6)nc4c2F)N2C[C@H]4CC[C@H](N4)[C@H]2CC3)c1C(F)(F)F [Example 1, 6-((5aR,6S,9R)-1-fluoro-12-(((2R,7aS)-2-fluorotetrahydro-1H-pyrrolizin-7a(5H)-yl)methoxy)-4,5,5a,6,7,8,9,10-octahydro-3,10a,11,13,14-pentaaza-6,9-methanonaphtho[1,8-ab]heptalen-2-yl)-4-methyl-5-(trifluoromethyl)pyridin-2-amine] | 16 nM | 0.84 nM |  |
| Cc1cc(N)nc(-c2nc3c4c(nc(OC[C@@]56CCCN5C[C@H](F)C6)nc4c2F)N2C[C@H]4CC[C@H](N4)[C@@H]2CC3)c1C(F)(F)F [Example 4, 6-((5aS,6S,9R)-1-fluoro-12-(((2R,7aS)-2-fluorotetrahydro-1H-pyrrolizin-7a(5H)-yl)methoxy)-4,5,5a,6,7,8,9,10-octahydro-3,10a,11,13,14-pentaaza-6,9-methanonaphtho[1,8-ab]heptalen-2-yl)-4-methyl-5-(trifluoromethyl)pyridin-2-amine] | > 100 nM | 62 nM |  |
